Assay results: US6057314A, “Low molecular weight bicyclic thrombin inhibitors” (Biochem Pharma Inc., priority 1997, dated 2000)
Several values for one entry are separate records, joined by “and”; a condition that tells them apart may be missing. Equal entries are not always repeated. Where two headings read alike, the source gives them in different places.

Tests used:
carotid artery in rats = experiment: FeCl3 induced carotid arterial injury model (arterial thrombosis) in rats, time to occlusion; type: in vivo, rat (Sprague-Dawley); settings: Table 2
Protocol: Arterial Thrombosis Model
FeCl3 Induced Carotid Arterial Injury Model
Animals were laid on a 37° C. heating pad. The carotid artery was exposed through a midline cervical incision. Careful blunt dissection was used to isolate the vessel from the carotid sheath. […] A temperature probe (Physitemp*MT23/3) was placed between one of the pieces of tubing and the artery. Injury was induced by topical application on the carotid artery above the temperature probe of a small disc (3 mm dia.) of Whatman* No. 1 filter paper previously dipped in a 35% solution of FeCl3 […]. The vessel temperature was monitored for 60 minutes after application of FeCl3 as an indication of blood flow.
The time between the FeCl3 application and the time at which the vessel temperature decreased abruptly (>2.4° C.) was recorded as the time to occlusion of the vessel. Inhibitor compounds were given as an iv bolus (mg/kg) followed immediately by an iv infusion (μg/kg/min. via femoral vein). The dose of inhibitor needed to double the time to occlusion in comparison to control animals in which injury was induced in the absence of inhibitor was determined.

human thrombin [1] = biological target: T1, human thrombin (Homo sapiens, UniProt P00734); experiment: Inhibition of amidolytic activity of human thrombin (Ki, fluorogenic substrate Tos-Gly-Pro-Arg-AMC); type: biochemical
Protocol: In an assay to determine the inhibitory dissociation constant, Ki, for a given compound, a chromogenic or fluorogenic substrate of thrombin would be added to a solution containing a test compound and thrombin; the resulting catalytic activity of the enzyme would be spectrophotometrically determined. This type of assay is well known to those skilled in the art.
Determination of K1 Values for Heterocyclics
The steady-state velocity was then measured for a few minutes. The compounds of this invention were also pre-incubated with thrombin for 20 minutes at room temperature before adding the substrate.

human thrombin [2] = biological target: T1, human thrombin; experiment: dTT assay (fibrin clotting assay, human thrombin and bovine fibrinogen); type: biochemical; settings: Table 1; concentration required to double the clotting time; read-out: dTT IC50
From the text: The clotting time was plotted against the inhibitor concentrations and the IC50 was estimated as the inhibitor concentration required to double the clotting time relative to the control.

[3] = ivb + inf 0.75-50 (iv bolus mg/kg, infusion μg/kg/min)
[4] = Table 1, read-out: Ki (inhibitory dissociation constant for human thrombin)

## N=C(N)NCCCC(NC(=O)[C@@H]1CS[C@H]2CC[C@@H](Cc3ccccc3)C(=O)N21)C(=O)c1nc2ccccc2s1 (stereo partly drawn) [Compound 0210, 6-Benzyl-5-oxo-hexahydro-thiazolo[3,2-a]pyridine-3-carboxylic acid[1-(benzothiazole-2-carbonyl)-4-guanidino-butyl]-amide]
Carotid artery in rats; [3]
  M.O.T (min)+/-sem: 20.13 ± 3.4 min
Human thrombin [1]; Table 2, read-out: Ki
  Ki: 8 nM

## N=C(N)NCCCC(NC(=O)[C@@H]1CSC2CC[C@H](NC(=O)CCc3ccccc3)C(=O)N21)C(=O)c1nccs1 (single isomer, unassigned) [Compound 0305b]
Human thrombin [1]; Table 2, read-out: Ki
  Ki: 12000 nM

## N=C(N)NCCCC(NC(=O)[C@@H]1CSC2CC[C@H](NC(=O)CCc3ccccc3)C(=O)N21)C(=O)c1nccs1 (single isomer, unassigned) [Compound 0305a]
Human thrombin [1]; Table 2, read-out: Ki
  Ki: 220 nM

## Cc1cnc(C(=O)C(CCCNC(=N)N)NC(=O)[C@@H]2CC[C@H]3CN(C(=O)CCc4ccccc4)CC(=O)N32)s1 (stereo partly drawn) [Compound 0345, 4-Oxo-2-(3-phenyl-propionyl)-octahydro-pyrrolo[1,2-a]pyrazine-6-carboxylic acid[4-guanidino-1-(5-methyl-thiazole-2-carbonyl)-butyl]-amide]
Carotid artery in rats; [3]
  M.O.T (min)+/-sem: 50 ± 5.86 min
Human thrombin [1]; Table 2, read-out: Ki
  Ki: 2 nM

## N=C(N)NCCCC(NC(=O)C1CSC2CCC(NC(=O)CCc3ccccc3)C(=O)N21)C(=O)c1nccs1 (stereo not drawn) [Compound 0315b]
Carotid artery in rats; [3]
  M.O.T (min)+/-sem: 30.33 ± 8.4 min
Human thrombin [1]; Table 2, read-out: Ki
  Ki: 10 nM

## N=C(N)NCCCC(NC(=O)[C@@H]1CS[C@@H]2CC[C@@H](CCCC3CCCCC3)C(=O)N21)C(=O)c1nccs1 (single isomer, unassigned) [Compound 0265b]
Carotid artery in rats; [3]
  M.O.T (min)+/-sem: 14.83 ± 2.3 min
Human thrombin [1]; Table 2, read-out: Ki
  Ki: 18 nM

## N=C(N)NCCCC(NC(=O)C1CSC2CCC(NC(=O)CCc3ccccc3)C(=O)N21)C(=O)c1nccs1 (stereo not drawn) [0315a + b]
Human thrombin [1]; Table 2, read-out: Ki
  Ki: 45 nM

## Cn1ccnc1C(=O)C(CCCNC(=N)N)NC(=O)[C@@H]1CS[C@@H]2CC[C@@H](Cc3ccccc3)C(=O)N21 (stereo partly drawn) [Compound 0255, 6-Benzyl-5-oxo-hexahydro-thiazolo[3,2-a]pyridine-3-carboxylic acid[4-guanidino-1-(1-methyl-1H imidazole-2-carbonyl)butyl]-amide]
Human thrombin [1]; Table 2, read-out: Ki
  Ki: 500 nM

## N=C(N)NCCCC(NC(=O)C1CSC2CCC(N3C(=O)c4ccccc4C3=O)C(=O)N21)C(=O)c1nccs1 (single isomer, unassigned) [Compound 0295a]
Carotid artery in rats; [3]
  M.O.T (min)+/-sem: 20 ± 1 min
Human thrombin [1]; Table 2, read-out: Ki
  Ki: 1500 nM

## N=C(N)NCCCC(NC(=O)[C@@H]1CSC[C@H]2CC[C@@H](Cc3ccccc3)C(=O)N21)C(=O)c1nccs1 (single isomer, unassigned) [Compound 0925a]
Carotid artery in rats; [3]
  M.O.T (min)+/-sem: 20.3 ± 3.5 min
Human thrombin [1]; Table 2, read-out: Ki
  Ki: 7 nM

## N=C(N)NCCCC(NC(=O)[C@@H]1CSCC2CC[C@@H](Cc3ccccc3)C(=O)N21)C(=O)c1nccs1 (stereo partly drawn) [0925a + b]
Carotid artery in rats; [3]
  M.O.T (min)+/-sem: 19.6 ± 0.2 min
Human thrombin [1]; Table 2, read-out: Ki
  Ki: 10 nM

## N=C(N)NCCCC(NC(=O)[C@@H]1CSC[C@H]2CC[C@@H](Cc3ccccc3)C(=O)N21)C(=O)c1nccs1 (single isomer, unassigned) [Compound 0925b]
Human thrombin [1]; Table 2, read-out: Ki
  Ki: 30 nM

## CC12CCC(Cc3ccccc3)C(=O)N1C(C(=O)NC(CCCNC(=N)N)C(=O)c1nccs1)CS2 (stereo not drawn) [Compound 0260, 6-Benzyl-8a-methyl-5-oxo-hexahydro-thiazolo[3,2-a]pyridine-3-carboxylic acid[4-guanidino-1-(thiazole-2-carbonyl)-butyl]-amide]
Carotid artery in rats; [3]
  M.O.T (min)+/-sem: 14.83 ± 0.2 min

## N=C(N)NCCCC(NC(=O)[C@@H]1CS(=O)(=O)C[C@H]2CC[C@@H](Cc3ccccc3)C(=O)N21)C(=O)c1nccs1 (single isomer, unassigned) [Compound 0950a]
Human thrombin [1]; Table 2, read-out: Ki
  Ki: 150 nM

## N=C(N)NCCCC(NC(=O)[C@@H]1CSC[C@H]2CC[C@@H](CCc3ccccc3)C(=O)N21)C(=O)c1nccs1 (single isomer, unassigned) [Compound 0940a]
Carotid artery in rats; [3]
  M.O.T (min)+/-sem: 15.2 ± 0.82 min
Human thrombin [1]; Table 2, read-out: Ki
  Ki: 16 nM

## N=C(N)NCCCC(NC(=O)[C@@H]1CC[C@H]2CN(C(=O)CCc3ccccc3)CC(=O)N21)C(=O)c1nccs1 (stereo partly drawn) [Compound 0340, 4-Oxo-2-(3-phenyl-propionyl)-octahydro-pyrrolo[1,2-a]-pyrazine-6-carboxylic acid [4-guanidino-1-(thiazole-2-carbonyl)-butyl]-amide]
Carotid artery in rats; ivb + inf 0.25-20 (iv bolus mg/kg, infusion μg/kg/min)
  M.O.T (min)+/-sem: 36+/-9,6 min
Human thrombin [1]; Table 2, read-out: Ki
  Ki: 0.6 nM

## COC(=O)CCC(=O)C(CCCNC(=N)N)NC(=O)[C@@H]1CSC2CC[C@@H](Cc3ccccc3)C(=O)N21 (stereo partly drawn) [Compound 0100, 6S-benzylhexahydro-5-oxo-5H-thiazolo[3,2-a]pyridine-3R-carboxamido(propylcarbmethoxyketoarginine)]
Human thrombin [2]
  IC50: 165000 nM
Human thrombin [1]; [4]
  Ki: 19000 nM

## N=C(N)NCCCC(NC(=O)[C@@H]1CS[C@@H]2CC[C@@H](CCCC3CCCCC3)C(=O)N21)C(=O)c1nccs1 (single isomer, unassigned) [Compound 0265a]
Carotid artery in rats; [3]
  M.O.T (min)+/-sem: 21.5 ± 10 min
Human thrombin [1]; Table 2, read-out: Ki
  Ki: 4 nM

## N=C(N)NCCCC(NC(=O)[C@@H]1CSC[C@H]2CC[C@@H](CCc3ccccc3)C(=O)N21)C(=O)c1nccs1 (single isomer, unassigned) [Compound 0940b]
Human thrombin [1]; Table 2, read-out: Ki
  Ki: 160 nM

## N=C(N)NCCCC(NC(=O)[C@@H]1CS[C@@H]2CC[C@@H](Cc3ccccc3)C(=O)N21)C(=O)c1nccs1 (stereo partly drawn) [Compound 0245, 6-Benzyl-5-oxo-hexahydro-thiazolo[3,2-a]pyridine-3-carboxylic acid[4-guanidino-1-(thiazole-2-carbonyl)butyl]-amide]
Carotid artery in rats; ivb + inf 0.5-30 (iv bolus mg/kg, infusion μg/kg/min)
  M.O.T (min)+/-sem: 27 ± 3 min
Carotid artery in rats; [3]
  M.O.T (min)+/-sem: 22.6 ± 2.6 min
Human thrombin [1]; Table 2, read-out: Ki
  Ki: 5 nM and 8 nM

## N=C(N)NCCCC(NC(=O)[C@@H]1CSC2CC[C@@H](CC3CCCCC3)C(=O)N21)C(=O)CCC(=O)N[C@@H](Cc1ccccc1)C(=O)N[C@@H](CCCNC(=N)N)C(N)=O (stereo partly drawn) [Compound 0090, 6S-cyclohexylmethylhexahydro-5-oxo-5H-thiazolo[3,2-a]pyridine-3R-carboxamido((propylketo)Arg--Phe--Arg--NH2)]
Human thrombin [2]
  IC50: 330 nM
Human thrombin [1]; [4]
  Ki: 31 nM

## N=C(N)NCCCC(NC(=O)[C@@H]1CS(=O)(=O)C[C@H]2CC[C@@H](Cc3ccccc3)C(=O)N21)C(=O)c1nccs1 (single isomer, unassigned) [Compound 0950b]
Human thrombin [1]; Table 2, read-out: Ki
  Ki: 1000 nM

## N=C(N)NCCCC(NC(=O)C1CSC2CCC(N3C(=O)c4ccccc4C3=O)C(=O)N21)C(=O)c1nccs1 (single isomer, unassigned) [Compound 0295b]
Carotid artery in rats; [3]
  M.O.T (min)+/-sem: 19 ± 2.7 min

## C[C@]12CC[C@@H](Cc3ccc4nc(C(F)(F)F)ccc4c3)C(=O)N1[C@H](C(=O)NC(CCCNC(=N)N)C(=O)c1nc3ccccc3s1)CS2 (stereo partly drawn) [Compound 0240, 8a-Methyl-5-oxo-6-(2-trifluoromethyl-quinolin-6-ylmethyl)-hexahydro-thiazolo[3,2-a]pyridine-3-carboxylic acid[1-(benzothiazole-2-carbonyl)-4-guanidino-butyl]-amide]
Carotid artery in rats; [3]
  M.O.T (min)+/-sem: 17 ± 2.6 min
Human thrombin [1]; Table 2, read-out: Ki
  Ki: 18 nM

## N=C(N)NCCCC(NC(=O)[C@@H]1CSCC2CCCC(=O)N21)C(=O)c1nccs1 (stereo partly drawn) [Compound 0915, 6-Oxo-octahydro-pyrido[2,1-c][1,4]thiazine-4-carboxylic acid[4-guanidino-1-(thiazole-2-carbonyl)-butyl]-amide]
Carotid artery in rats; [3]
  M.O.T (min)+/-sem: 15+/-1,3 min
Human thrombin [1]; Table 2, read-out: Ki
  Ki: 1600 nM

## N=C(N)NCCCC(NC(=O)[C@@H]1CSC2CC[C@@H](Cc3ccccc3)C(=O)N21)C(=O)CCC(=O)O (stereo partly drawn) [Compound 0095, 6S-benzylhexahydro-5-oxo-5H-thiazolo[3,2-a]pyridine-3R-carboxamido((propanoic acid)ketoarginine)]
Human thrombin [1]; [4]
  Ki: 26000 nM

## CC12CCC(CCc3ccccc3)C(=O)N1C(C(=O)NC(CCCNC(=N)N)C(=O)c1nc3ccccc3s1)CS2 (stereo not drawn) [Compound 0225, 8a-Methyl-5-oxo-6-phenethyl-hexahydro-thiazolo[3,2-a]pyridine-3-carboxylic acid[1-(benzothiazole-2-carbonyl)-4-guanidino-butyl]-amide]
Carotid artery in rats; [3]
  M.O.T (min)+/-sem: 23 ± 7 min

## N=C(N)NCCCC(NC(=O)[C@@H]1CSCC2CC[C@H](Cc3ccccc3)C(=O)N21)C(=O)c1nccs1 (stereo partly drawn) [Compound 0935, 7-Benzyl-6-oxo-octahydro-pyrido[2,1-c][1,4]thiazine-4-carboxylic acid[4-guanidino-1-(thiazole-2-carbonyl)butyl]-amide]
Human thrombin [1]; Table 2, read-out: Ki
  Ki: 120 nM

## CC12CCC(Cc3ccc4nc(C(F)(F)F)ccc4c3)C(=O)N1C(C(=O)NC(CCCNC(=N)N)C(=O)c1nccs1)CS2 (stereo not drawn) [Compound 0285, 8a-Methyl-5-oxo-6-(2-trifluoromethyl-quinolin-6-ylmethyl)-hexahydro-thiazolo[3,2-a]pyridine-3-carboxylic acid[4-guanidino-1-(thiazole-2-carbonyl)-butyl]-amide]
Carotid artery in rats; [3]
  M.O.T (min)+/-sem: 11.33 ± 1.34 min
